Here are results for three molecules from patent publication US10870647B2, “Imidazopyridine derivative, method for preparing same, and pharmaceutical composition containing same as active ingredient for preventing or treating cancer” (DAEGU-GYEONGBUK MEDICAL INNOVATION FOUNDATION, priority 2016, dated 2020).

Assay in all cases: Kinase selectivity, scanMAX Kinase assay panel (DiscoverX), % control at 1 uM
What all share (format): binding

For assay [1], the target named is T1, scanMAX Kinase assay panel (Homo sapiens, UniProt P33981).
T1 construct: purchased DiscoverX
T1 sequence (P33981 1-857): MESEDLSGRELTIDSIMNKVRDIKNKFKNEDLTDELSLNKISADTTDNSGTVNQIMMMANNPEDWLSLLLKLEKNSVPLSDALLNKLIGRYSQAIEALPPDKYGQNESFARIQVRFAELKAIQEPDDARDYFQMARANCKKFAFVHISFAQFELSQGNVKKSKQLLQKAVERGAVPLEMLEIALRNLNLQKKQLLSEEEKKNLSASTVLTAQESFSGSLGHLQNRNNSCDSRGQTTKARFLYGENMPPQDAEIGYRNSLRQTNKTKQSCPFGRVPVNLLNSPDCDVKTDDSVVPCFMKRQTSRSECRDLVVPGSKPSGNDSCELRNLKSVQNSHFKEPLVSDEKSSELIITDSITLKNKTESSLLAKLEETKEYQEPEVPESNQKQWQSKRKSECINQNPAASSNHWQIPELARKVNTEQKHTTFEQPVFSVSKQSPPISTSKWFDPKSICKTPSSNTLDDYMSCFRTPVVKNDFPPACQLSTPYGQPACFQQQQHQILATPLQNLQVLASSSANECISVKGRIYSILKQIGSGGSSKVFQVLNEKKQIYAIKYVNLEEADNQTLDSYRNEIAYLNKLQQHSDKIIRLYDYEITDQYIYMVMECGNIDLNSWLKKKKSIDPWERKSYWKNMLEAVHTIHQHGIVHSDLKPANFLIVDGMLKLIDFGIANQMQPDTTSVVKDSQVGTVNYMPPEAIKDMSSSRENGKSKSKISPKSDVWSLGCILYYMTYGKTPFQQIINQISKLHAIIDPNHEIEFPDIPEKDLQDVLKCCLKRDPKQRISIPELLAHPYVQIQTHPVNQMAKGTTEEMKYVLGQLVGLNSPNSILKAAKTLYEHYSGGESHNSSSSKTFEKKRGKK
As to conditions: TTK; 1 uM; read-out: Percent Control (%). An outline of the steps: (§1)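 Read-out is percent of control, derived from the signal with compound relative to positive and negative controls: (compound − positive)/(negative − positive) × 100. Each enzyme received test drug at 1 uM in DMSO, and values under 35% count as active.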

For assay [2], the target named is T2, scanMAX Kinase assay panel (Homo sapiens, UniProt Q13705).
T2 construct: purchased DiscoverX
As to conditions: ACVR2B; 1 uM; read-out: Percent Control (%). The essentials: as §1

Assay [3] deals with T3, scanMAX Kinase assay panel (Homo sapiens, UniProt Q16513).
T3 construct: purchased DiscoverX
As to conditions: PKN2; 1 uM; read-out: Percent Control (%). The essentials: as §1

Assay [4] concerns the target T4, scanMAX Kinase assay panel (Homo sapiens, UniProt Q86YV6).
T4 construct: purchased DiscoverX
T4 sequence (Q86YV6 1-388): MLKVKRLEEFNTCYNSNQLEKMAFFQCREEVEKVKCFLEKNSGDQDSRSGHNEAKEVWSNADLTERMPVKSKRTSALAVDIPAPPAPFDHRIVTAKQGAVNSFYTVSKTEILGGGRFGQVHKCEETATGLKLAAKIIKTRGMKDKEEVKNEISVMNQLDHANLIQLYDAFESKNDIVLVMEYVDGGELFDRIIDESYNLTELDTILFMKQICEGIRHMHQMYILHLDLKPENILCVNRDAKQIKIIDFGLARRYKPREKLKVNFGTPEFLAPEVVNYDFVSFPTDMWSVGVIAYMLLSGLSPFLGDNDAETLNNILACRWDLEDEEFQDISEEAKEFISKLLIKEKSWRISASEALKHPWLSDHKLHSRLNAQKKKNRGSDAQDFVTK
The settings on record: MYLK4; 1 uM; read-out: Percent Control (%). An outline of the steps: as §1

The target in assay [5] is T5, scanMAX Kinase assay panel (Homo sapiens, UniProt Q8NFD2).
T5 construct: purchased DiscoverX
T5 sequence (Q8NFD2 1-765): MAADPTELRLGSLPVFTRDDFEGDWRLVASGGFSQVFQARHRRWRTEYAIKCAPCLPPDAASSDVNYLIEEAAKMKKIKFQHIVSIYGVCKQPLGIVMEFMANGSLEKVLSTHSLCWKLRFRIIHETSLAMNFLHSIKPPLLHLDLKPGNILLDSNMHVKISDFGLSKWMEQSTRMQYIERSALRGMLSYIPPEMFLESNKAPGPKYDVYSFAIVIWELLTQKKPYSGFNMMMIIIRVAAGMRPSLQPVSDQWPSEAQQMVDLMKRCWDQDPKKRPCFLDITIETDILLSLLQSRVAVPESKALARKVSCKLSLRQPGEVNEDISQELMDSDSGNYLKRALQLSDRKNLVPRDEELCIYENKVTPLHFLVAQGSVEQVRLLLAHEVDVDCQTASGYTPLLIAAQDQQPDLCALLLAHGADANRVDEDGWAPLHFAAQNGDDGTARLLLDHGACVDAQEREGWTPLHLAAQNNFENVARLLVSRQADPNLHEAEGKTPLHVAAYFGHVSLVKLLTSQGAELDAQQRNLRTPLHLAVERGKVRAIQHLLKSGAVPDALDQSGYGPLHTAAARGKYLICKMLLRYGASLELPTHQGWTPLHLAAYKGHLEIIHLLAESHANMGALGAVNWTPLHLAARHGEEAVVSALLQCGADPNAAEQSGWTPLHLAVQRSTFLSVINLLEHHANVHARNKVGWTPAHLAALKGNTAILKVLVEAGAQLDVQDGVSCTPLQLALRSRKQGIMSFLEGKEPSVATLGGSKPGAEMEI
The settings on record: ANKK1; 1 uM; read-out: Percent Control (%). An outline of the steps: as §1

The target of assay [6] is T6, scanMAX Kinase assay panel (Plasmodium falciparum, UniProt P61075).
T6 construct: purchased DiscoverX
As to conditions: PFPK5 (P. falciparum); 1 uM; read-out: Percent Control (%). An outline of the steps: as §1

T6 sequence (P61075 whole entry): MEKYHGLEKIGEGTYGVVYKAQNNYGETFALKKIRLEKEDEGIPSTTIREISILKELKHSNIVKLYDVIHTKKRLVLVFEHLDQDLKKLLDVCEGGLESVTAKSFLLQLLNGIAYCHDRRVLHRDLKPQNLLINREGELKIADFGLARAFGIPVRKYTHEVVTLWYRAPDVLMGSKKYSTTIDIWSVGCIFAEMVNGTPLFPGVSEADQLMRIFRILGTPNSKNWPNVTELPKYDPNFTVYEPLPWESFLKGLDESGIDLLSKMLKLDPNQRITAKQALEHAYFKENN
T3 sequence (Q16513 whole entry): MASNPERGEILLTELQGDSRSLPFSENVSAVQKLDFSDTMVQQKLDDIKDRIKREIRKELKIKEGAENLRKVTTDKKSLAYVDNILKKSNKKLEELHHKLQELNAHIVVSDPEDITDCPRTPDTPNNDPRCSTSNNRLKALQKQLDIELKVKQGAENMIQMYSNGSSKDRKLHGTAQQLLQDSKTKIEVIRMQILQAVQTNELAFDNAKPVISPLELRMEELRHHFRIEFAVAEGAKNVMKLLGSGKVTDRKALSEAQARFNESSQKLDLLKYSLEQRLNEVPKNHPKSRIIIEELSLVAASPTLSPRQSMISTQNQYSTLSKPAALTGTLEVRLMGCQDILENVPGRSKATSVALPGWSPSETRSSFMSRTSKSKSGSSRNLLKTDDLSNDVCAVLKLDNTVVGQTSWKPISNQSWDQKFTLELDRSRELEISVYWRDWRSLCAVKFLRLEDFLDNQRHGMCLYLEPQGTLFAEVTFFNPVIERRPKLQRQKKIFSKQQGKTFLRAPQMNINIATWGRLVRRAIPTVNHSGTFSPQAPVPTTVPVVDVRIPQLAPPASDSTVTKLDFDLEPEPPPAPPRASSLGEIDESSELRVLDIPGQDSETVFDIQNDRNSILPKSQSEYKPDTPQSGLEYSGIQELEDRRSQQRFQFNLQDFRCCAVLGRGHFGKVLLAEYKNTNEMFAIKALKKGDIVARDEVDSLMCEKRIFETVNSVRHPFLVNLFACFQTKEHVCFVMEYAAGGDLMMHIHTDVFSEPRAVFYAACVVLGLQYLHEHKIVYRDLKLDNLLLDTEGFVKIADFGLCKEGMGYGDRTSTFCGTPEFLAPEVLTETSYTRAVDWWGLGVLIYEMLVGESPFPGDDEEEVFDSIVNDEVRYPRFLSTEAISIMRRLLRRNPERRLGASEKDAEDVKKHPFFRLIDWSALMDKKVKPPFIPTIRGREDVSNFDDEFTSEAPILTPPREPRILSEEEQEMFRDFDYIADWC
T2 sequence (Q13705 19-512): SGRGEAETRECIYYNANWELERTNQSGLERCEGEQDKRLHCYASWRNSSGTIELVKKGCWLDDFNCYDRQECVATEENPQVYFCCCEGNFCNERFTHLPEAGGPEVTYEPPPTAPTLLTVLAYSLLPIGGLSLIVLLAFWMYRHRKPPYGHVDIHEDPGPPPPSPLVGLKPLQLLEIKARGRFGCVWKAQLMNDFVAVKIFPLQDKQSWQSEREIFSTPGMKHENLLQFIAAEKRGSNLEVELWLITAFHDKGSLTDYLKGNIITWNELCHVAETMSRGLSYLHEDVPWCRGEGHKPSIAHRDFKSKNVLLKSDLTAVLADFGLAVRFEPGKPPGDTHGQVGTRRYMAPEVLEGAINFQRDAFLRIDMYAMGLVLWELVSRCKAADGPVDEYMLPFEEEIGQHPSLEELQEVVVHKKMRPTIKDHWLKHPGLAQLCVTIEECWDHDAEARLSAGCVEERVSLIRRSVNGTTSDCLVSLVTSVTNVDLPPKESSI

For the molecule `Cc1ccc(C(=O)Nc2ccc(CN3CCN(C)CC3)c(C(F)(F)F)c2)cc1C#Cc1cnc2c(Nc3cnn(C)c3)cccn12` [Example 1, 4-methyl-3-((8-((1-methyl-1H-pyrazol-4-yl)amino)imidazo[1,2-a]pyridin-3-yl)ethynyl)-N-(4-((4-methylpiperazin-1-yl)methyl)-3-(trifluoromethyl)phenyl)benzamide], the remaining binding at 1 µM stood at 12% in assay [1]; 93% in assay [2]; 83% in assay [3]; 86% in assay [4]; 4% in assay [5]; 87% in assay [6].

In the case of `Cc1cn(-c2cc(NC(=O)c3ccc(C)c(C#Cc4cnc5c(Nc6cnn(C)c6)cccn45)c3)cc(C(F)(F)F)c2)cn1` [Example 12, 4-methyl-N-(3-(4-methyl-1H-imidazol-1-yl)-5-(trifluoromethyl)phenyl)-3-((8-((1-methyl-1H-pyrazol-4-yl)amino)imidazo[1,2-a]pyridin-3-yl)ethynyl)benzamide], the remaining binding at 1 µM in assay [1] was 70%; in assay [2] it was 96%; in assay [3], 83%; in assay [4], 92%; in assay [5], 100%; in assay [6] it was 100%.

For `Cc1ccc(NC(=O)C2(C(=O)Nc3ccc(F)cc3)CC2)cc1C#Cc1cnc2c(Nc3cnn(C(C)C)c3)cccn12` [Example 78], the remaining binding at 1 µM in assay [1] is 100%; in assay [2], 94%; in assay [3], 89%; in assay [4] it was 100%; in assay [5], 97%; in assay [6], 93%.
